The record followed here is patent publication US8617542B2, “DispersinB™, 5-fluorouracil, deoxyribonuclease I and proteinase K-based antibiofilm compositions and uses thereof” (Kane Biotech Inc., priority 2008, dated 2013).

Holding throughout (format): cell-based
One assay relates to Staphylococcus aureus. The experiment in a line: MIC in 96 well microtiter plate, S. aureus. To be noted: TSB, 5×10^5 CFU/mL, 37° C. Here is the method: (§1) The antimicrobial activity of 5-fluorouracil (FU) was studied by determining minimal inhibitory concentrations (MIC) in a 96 well microtiter plate. Briefly, serial two-fold dilutions of FU were performed in TSB. A suspension of each microorganism from Table 1 was added to wells at a concentration of 5×10^5 CFU/mL, and the microtiter plates were incubated at 37° C. The MIC was defined, as the lowest concentration of an antimicrobial required for total inhibition of a test microorganism at 37° C. 5-Fluorouracil was active against all the pathogens tested (Table 1).

The subject of a further assay is Burkholderia cepacia. The experiment in a line: MIC in 96 well microtiter plate, B. cepacia. To be noted: TSB, 5×10^5 CFU/mL, 37° C. The method, then:
as §1

The test system of another assay is Pseudomonas aeruginosa. The experiment in a line: MIC in 96 well microtiter plate, P. aeruginosa. To be noted: TSB, 5×10^5 CFU/mL, 37° C. Here is the method: as §1
Assay [1] deals with cystic fibrosis-associated pathogens. The experiment in a line: antimicrobial activity (MIC) against all pathogens tested. The settings on record: pathogens of Table 1. The method, then:
as §1

Converted amounts (≈) assume the structure as drawn.

For `O=c1[nH]cc(F)c(=O)[nH]1` [5-Fluorouracil, 5-fluoro-2,4(1H,3H)-Pyrimidinedione], the MIC (as a rule, the lowest concentration that inhibits growth of the organism) was 25 µg/mL (≈ 192 µM) against Staphylococcus aureus, 62.5 µg/mL (≈ 480 µM) against Burkholderia cepacia and 31.2 µg/mL (≈ 240 µM) in the assay with Pseudomonas aeruginosa. Also, in assay [1], the “antimicrobial activity against all the pathogens tested” value is “active”.
